Measurements reported in patent US20230066011A1, “PYRROLOPYRIMIDINE DERIVATIVE, AND PHARMACEUTICAL COMPOSITION FOR PREVENTING OR TREATING PROTEIN KINASE-RELATED DISEASE COMPRISING SAME AS ACTIVE INGREDIENT” (VORONOI CO., LTD., priority 2019, published 2023).

What was measured:
Format in all cases: binding
[1] = target: T1, CLK1 (Homo sapiens, UniProt P49759); test: ScanMAX Kinase analysis panel, CLK1; settings: 1 μM in DMSO; <35% considered inhibitory; read-out: percent control (% control), CLK1
T1 construct: purchased DiscoverX Corp. (ScanMAX Kinase analysis panel, service)
Method: (§1) Specifically, the enzyme (kinase) selectivity of Example compounds 238, 361, 411, 157, 161, 228, and 158 selected from the Example compounds of the present invention was determined by commissioning DiscoverX Corp., and an experiment was performed using a ScanMAX™ Kinase analysis panel. In this case, a concentration of the drug with which the enzymes were treated was 1 μM in DMSO, and the percent control (% control) was defined in the same manner as in the following Expression 1.
(§2) (Example Compound−Positive Control)/(Negative Control−Positive Control)×100 [Expression 1]
(§3) wherein the positive control represents a compound having a percent control of 0%, and the negative control represents DMSO having a percent control of 100%. For the enzyme selectivity of the present invention, it was considered that the compound has an inhibitory activity on each of the enzymes when the percent control for the corresponding enzyme was <35% (i. e., less than 35%).

[2] = target: T2, TTK (Homo sapiens, UniProt P33981); test: ScanMAX Kinase analysis panel, TTK; set-up: purchased DiscoverX Corp. (commissioned ScanMAX panel service); settings: 1 μM in DMSO; <35% considered inhibitory; read-out: percent control (% control), TTK
T2 sequence (P33981 1-857): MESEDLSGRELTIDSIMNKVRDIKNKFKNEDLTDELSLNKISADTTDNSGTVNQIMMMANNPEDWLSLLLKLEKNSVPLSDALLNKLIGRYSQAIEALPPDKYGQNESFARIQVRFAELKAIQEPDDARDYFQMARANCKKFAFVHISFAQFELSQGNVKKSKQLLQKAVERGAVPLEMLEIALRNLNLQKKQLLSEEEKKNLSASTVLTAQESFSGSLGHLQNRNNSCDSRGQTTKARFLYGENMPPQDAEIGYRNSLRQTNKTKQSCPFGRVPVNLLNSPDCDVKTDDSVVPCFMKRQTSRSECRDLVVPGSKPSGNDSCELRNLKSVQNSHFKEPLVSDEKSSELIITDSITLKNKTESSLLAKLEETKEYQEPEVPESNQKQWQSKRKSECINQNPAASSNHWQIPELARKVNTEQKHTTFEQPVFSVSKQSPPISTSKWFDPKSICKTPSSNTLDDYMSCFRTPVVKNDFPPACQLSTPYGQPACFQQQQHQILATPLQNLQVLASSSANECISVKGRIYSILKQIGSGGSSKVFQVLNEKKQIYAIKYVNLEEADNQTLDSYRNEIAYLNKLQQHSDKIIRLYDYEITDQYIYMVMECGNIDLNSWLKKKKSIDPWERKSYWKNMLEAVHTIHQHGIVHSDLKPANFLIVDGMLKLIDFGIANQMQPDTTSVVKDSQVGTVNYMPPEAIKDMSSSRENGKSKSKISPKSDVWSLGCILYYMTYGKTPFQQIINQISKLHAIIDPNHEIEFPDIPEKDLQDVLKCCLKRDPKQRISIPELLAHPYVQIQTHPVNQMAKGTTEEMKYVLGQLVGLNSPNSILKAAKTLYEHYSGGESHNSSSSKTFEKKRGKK
Method: as §1, §2, §3

[3] = target: T3, DYRK2 (Homo sapiens, UniProt Q92630); test: ScanMAX Kinase analysis panel, DYRK2; settings: 1 μM in DMSO; <35% considered inhibitory; read-out: percent control (% control), DYRK2
T3 construct: purchased DiscoverX Corp. (ScanMAX Kinase analysis panel, service)
T3 sequence (Q92630 1-601): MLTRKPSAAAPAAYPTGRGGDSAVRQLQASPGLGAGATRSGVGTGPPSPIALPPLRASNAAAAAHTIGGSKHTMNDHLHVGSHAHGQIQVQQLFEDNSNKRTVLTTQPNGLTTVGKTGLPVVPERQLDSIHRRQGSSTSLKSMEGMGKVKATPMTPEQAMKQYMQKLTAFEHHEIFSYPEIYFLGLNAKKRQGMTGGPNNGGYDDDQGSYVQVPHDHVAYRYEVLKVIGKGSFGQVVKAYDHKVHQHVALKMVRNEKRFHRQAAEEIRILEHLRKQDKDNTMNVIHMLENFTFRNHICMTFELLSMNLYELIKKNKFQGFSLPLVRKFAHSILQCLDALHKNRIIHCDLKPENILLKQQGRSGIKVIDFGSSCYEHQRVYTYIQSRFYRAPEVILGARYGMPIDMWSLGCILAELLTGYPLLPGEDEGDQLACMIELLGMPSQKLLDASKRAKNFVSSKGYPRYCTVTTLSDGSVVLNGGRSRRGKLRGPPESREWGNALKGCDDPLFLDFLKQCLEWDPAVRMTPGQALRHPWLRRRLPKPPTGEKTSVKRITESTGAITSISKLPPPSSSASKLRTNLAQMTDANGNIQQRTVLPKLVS
Method: as §1, §2, §3

[4] = target: T4, PYK2 (Homo sapiens, UniProt Q14289); test: ScanMAX Kinase analysis panel, PYK2; settings: 1 μM in DMSO; <35% considered inhibitory; read-out: percent control (% control), PYK2
T4 construct: purchased DiscoverX Corp. (commissioned ScanMAX panel service)
Method: as §1, §2, §3

[5] = target: T5, PHKG1 (Homo sapiens, UniProt Q16816); test: ScanMAX Kinase analysis panel, PHKG1; settings: 1 μM in DMSO; <35% considered inhibitory; read-out: percent control (% control), PHKG1
T5 construct: purchased DiscoverX Corp. (ScanMAX Kinase analysis panel, service)
Method: as §1, §2, §3

[6] = target: T6, CSNK1E (Homo sapiens, UniProt P49674); test: ScanMAX Kinase analysis panel, CSNK1E; settings: 1 μM in DMSO; <35% considered inhibitory; read-out: percent control (% control), CSNK1E
T6 construct: purchased DiscoverX Corp. (ScanMAX Kinase analysis panel, service)
Method: as §1, §2, §3

[7] = target: LRRK2 (Homo sapiens, UniProt Q5S007); test: ScanMAX Kinase analysis panel, LRRK2; set-up: purchased DiscoverX Corp. (ScanMAX Kinase analysis panel, service); settings: 1 μM in DMSO; <35% considered inhibitory; read-out: percent control (% control), LRRK2
Method: as §1, §2, §3

[8] = target: T7, DYRK1A (Homo sapiens, UniProt Q13627); test: ScanMAX Kinase analysis panel, DYRK1A; settings: 1 μM in DMSO; <35% considered inhibitory; read-out: percent control (% control), DYRK1A
T7 construct: purchased DiscoverX Corp. (ScanMAX Kinase analysis panel, service)
Method: as §1, §2, §3

T4 sequence (Q14289 whole entry): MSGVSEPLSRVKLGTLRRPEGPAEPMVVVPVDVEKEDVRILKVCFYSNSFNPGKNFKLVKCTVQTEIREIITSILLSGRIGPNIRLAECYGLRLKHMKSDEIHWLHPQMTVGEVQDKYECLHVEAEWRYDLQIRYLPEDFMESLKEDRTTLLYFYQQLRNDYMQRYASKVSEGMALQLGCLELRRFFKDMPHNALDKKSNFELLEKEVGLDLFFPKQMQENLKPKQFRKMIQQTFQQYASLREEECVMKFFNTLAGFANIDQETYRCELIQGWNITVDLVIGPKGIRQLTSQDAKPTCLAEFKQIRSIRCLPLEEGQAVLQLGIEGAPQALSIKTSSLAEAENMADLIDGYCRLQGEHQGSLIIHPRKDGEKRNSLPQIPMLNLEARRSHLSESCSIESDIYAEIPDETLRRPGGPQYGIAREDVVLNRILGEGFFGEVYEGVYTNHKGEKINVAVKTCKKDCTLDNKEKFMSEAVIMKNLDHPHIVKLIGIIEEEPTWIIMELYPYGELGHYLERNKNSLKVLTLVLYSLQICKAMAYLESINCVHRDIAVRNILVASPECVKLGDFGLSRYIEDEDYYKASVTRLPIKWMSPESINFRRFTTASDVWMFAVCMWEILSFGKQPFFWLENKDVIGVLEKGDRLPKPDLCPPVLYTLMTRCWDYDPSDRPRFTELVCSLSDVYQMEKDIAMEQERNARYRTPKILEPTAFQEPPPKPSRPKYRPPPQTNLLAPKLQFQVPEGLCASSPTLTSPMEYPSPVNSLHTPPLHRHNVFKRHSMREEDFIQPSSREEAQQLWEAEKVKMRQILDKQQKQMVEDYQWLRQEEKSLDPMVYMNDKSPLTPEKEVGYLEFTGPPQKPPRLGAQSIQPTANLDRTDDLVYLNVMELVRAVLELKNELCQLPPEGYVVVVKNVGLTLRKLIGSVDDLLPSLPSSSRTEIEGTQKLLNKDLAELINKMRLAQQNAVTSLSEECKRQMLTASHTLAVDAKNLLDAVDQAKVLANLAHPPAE
T1 sequence (P49759 whole entry): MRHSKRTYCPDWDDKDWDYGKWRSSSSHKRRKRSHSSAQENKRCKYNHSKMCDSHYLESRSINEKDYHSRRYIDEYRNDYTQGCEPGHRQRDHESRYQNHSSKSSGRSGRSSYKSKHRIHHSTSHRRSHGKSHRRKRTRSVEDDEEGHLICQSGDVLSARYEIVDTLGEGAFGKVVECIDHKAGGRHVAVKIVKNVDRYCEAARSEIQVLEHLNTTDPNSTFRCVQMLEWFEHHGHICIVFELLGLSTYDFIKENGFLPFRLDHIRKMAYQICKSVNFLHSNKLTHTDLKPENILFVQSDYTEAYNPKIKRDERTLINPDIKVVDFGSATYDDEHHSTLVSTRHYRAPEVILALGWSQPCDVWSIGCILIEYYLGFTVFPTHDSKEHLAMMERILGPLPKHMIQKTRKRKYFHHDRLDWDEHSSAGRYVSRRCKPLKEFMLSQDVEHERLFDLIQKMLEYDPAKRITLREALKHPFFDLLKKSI
T6 sequence (P49674 whole entry): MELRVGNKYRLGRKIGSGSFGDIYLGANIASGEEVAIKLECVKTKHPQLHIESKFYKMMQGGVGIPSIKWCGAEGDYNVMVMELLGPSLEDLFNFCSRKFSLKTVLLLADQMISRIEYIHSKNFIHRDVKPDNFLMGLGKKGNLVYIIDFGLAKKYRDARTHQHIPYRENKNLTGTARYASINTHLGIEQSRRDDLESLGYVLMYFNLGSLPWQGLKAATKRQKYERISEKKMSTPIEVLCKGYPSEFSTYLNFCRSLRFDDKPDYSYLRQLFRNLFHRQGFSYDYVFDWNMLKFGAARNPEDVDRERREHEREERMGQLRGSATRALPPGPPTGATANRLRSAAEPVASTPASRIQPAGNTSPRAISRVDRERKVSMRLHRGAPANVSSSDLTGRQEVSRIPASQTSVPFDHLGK
T5 sequence (Q16816 whole entry): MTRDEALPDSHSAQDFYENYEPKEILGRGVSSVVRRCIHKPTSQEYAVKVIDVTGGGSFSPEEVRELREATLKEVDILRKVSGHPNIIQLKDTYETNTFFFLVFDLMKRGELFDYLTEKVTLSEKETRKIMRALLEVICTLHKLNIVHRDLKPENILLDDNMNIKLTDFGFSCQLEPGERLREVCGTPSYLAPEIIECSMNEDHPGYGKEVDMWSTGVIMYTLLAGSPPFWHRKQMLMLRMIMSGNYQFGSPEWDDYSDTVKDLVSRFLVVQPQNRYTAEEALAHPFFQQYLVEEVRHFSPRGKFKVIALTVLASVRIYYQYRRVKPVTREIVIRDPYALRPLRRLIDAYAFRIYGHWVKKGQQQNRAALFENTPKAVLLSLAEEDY
Sequence of LRRK2 (Q5S007 whole entry): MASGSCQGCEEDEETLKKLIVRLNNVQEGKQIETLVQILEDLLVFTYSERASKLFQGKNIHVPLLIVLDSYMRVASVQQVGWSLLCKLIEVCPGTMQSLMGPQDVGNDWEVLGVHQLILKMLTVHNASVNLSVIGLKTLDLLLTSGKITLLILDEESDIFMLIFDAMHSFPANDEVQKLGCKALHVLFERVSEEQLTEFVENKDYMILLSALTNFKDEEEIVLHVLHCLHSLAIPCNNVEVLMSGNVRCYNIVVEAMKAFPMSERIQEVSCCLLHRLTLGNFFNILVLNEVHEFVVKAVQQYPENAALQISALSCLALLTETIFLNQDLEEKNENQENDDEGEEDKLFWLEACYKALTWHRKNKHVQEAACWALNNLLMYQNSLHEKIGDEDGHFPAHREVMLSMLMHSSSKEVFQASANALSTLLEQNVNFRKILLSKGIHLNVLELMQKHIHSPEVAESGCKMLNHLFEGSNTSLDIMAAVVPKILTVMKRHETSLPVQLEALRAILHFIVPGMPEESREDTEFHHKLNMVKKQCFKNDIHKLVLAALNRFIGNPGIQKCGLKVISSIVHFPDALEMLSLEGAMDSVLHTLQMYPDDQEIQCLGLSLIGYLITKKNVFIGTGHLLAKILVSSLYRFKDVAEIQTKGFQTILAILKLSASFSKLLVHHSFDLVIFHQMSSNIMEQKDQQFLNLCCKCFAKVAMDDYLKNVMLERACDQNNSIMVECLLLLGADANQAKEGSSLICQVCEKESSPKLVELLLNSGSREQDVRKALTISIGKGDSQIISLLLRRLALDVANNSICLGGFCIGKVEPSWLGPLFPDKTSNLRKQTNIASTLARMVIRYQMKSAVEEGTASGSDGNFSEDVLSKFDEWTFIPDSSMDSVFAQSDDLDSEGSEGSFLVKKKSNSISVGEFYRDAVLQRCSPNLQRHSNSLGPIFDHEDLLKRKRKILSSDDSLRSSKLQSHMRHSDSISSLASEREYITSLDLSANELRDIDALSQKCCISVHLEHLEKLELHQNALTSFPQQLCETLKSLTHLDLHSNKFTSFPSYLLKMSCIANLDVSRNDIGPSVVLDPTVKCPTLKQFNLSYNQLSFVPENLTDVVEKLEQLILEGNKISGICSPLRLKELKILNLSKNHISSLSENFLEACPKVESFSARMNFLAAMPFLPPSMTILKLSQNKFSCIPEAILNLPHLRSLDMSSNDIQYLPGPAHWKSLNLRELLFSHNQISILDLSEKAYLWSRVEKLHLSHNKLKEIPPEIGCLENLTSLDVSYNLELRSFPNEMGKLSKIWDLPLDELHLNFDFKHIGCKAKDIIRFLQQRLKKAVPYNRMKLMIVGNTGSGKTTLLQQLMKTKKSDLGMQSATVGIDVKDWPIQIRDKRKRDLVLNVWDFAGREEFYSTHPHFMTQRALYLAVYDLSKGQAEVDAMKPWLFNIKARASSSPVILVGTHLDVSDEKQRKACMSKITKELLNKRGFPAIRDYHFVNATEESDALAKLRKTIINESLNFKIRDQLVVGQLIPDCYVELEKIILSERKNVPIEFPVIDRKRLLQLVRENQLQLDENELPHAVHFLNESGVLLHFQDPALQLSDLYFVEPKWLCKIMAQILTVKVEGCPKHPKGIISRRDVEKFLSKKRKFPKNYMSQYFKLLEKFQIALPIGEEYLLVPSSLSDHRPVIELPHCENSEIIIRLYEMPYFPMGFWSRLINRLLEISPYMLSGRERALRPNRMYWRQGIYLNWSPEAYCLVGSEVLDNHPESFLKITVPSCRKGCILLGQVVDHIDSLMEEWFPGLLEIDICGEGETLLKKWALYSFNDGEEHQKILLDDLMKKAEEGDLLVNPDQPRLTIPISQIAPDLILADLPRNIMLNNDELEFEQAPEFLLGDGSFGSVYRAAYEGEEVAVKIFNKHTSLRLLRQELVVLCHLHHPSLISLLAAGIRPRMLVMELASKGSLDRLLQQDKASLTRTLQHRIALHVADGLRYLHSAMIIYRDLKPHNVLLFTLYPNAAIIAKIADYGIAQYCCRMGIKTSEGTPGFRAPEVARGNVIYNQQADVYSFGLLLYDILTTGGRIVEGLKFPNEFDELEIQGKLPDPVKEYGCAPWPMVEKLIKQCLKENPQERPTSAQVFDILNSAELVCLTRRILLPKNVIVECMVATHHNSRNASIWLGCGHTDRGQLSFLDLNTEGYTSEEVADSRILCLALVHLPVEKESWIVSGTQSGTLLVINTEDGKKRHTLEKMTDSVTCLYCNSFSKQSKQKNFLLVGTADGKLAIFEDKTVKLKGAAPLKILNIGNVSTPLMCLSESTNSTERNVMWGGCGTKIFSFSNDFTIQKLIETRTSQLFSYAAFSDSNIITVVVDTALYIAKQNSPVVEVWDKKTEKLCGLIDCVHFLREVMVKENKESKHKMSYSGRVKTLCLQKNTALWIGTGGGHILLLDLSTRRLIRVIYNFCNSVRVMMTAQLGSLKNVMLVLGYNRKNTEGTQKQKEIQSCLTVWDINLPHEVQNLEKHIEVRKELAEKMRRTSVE

SMILES	remaining binding at 1 µM [1]	remaining binding at 1 µM [2]	remaining binding at 1 µM [3]	remaining binding at 1 µM [4]	remaining binding at 1 µM [5]	remaining binding at 1 µM [6]	remaining binding at 1 µM [7]	remaining binding at 1 µM [8]
CNc1nc(Nc2ccc(P3(=O)CCN(C4CC4)CC3)cc2OC)nc2[nH]cc(C(F)(F)F)c12 [Example 411, 1-cyclopropyl-4-(3-methoxy-4-((4-(methylamino)-5-(trifluoromethyl)-7H-pyrrolo[2,3-d]pyrimidin-2-yl)amino)phenyl)-1,4-azaphosphinane-4-oxide]	7.2%	2.5%	28%	13%	17%	31%	1.9%	0.2%
CCCNc1nc(Nc2ccc(S(=O)(=O)N3CCC(N4CCOCC4)CC3)cc2OC)nc2[nH]cc(C(F)(F)F)c12 [Example 161, N^2-(2-methoxy-4-((4-morpholinopiperidin-1-yl)sulfonyl)phenyl)-N^4-propyl-5-(trifluoromethyl)-7H-pyrrolo[2,3-d]pyrimidine-2,4-diamine]	5.5%	4.2%	33%	1.3%	24%	12%	1%	2%
CCNc1nc(Nc2ccc(S(=O)(=O)N3CCC(N4CCOCC4)CC3)cc2OC)nc2[nH]cc(C(F)(F)F)c12 [Example 158, N^4-ethyl-N^2-(2-methoxy-4-((4-morpholinopiperidin-1-yl)sulfonyl)phenyl)-5-(trifluoromethyl)-7H-pyrrolo[2,3-d]pyrimidine-2,4-diamine 2,2,2-trifluoroacetate]	1%	2.6%	25%	3%	25%	3.3%	0%	0.75%
C=CCNc1nc(Nc2ccc(S(=O)(=O)N3CCC(N4CCOCC4)CC3)cc2OC)nc2[nH]cc(C#N)c12 [Example 361, 4-(allylamino)-2-((2-methoxy-4-((4-morpholino-piperidin-1-yl)sulfonyl)phenyl)amino)-7H-pyrrolo[2,3-d]pyrimidine-5-carbonitrile]	2.4%	2.4%	10%	2.2%	9.7%	0.05%	0%	2.6%

Further lines, results first:

remaining binding at 1 µM [1]	remaining binding at 1 µM [2]	remaining binding at 1 µM [3]	remaining binding at 1 µM [4]	remaining binding at 1 µM [5]	remaining binding at 1 µM [6]	remaining binding at 1 µM [7]	remaining binding at 1 µM [8]	SMILES
6.7%	4%	7%	5.5%	7.8%	2.4%	0.7%	0.05%	CNc1nc(Nc2ccc(S(=O)(=O)N3CCC(N4CCOCC4)CC3)cc2OC)nc2[nH]cc(C(F)(F)F)c12 [Example 157, N^2-(2-methoxy-4-((4-morpholinopiperidin-1-yl)sulfonyl)phenyl)-N^4-methyl-5-(trifluoromethyl)-7H-pyrrolo[2,3-d]pyrimidine-2,4-diamine 2,2,2-trifluoroacetate]
6.1%	2.9%	16%	22%	30%	40%	0.3%	0.5%	O=C(c1ccc(Nc2nc(C3CC3)c3c(C(F)(F)F)c[nH]c3n2)c2c1OCCO2)N1CCC(N2CCOCC2)CC1 [Example 228, (8-((4-cyclopropyl-5-(trifluoromethyl)-7H-pyrrolo[2,3-d]pyrimidin-2-yl)amino)-2,3-dihydrobenzo[b][1,4]dioxin-5-yl)(4-morpholinopiperidin-1-yl)methanone]
16%	2.9%	19%	5.2%	3.6%	32%	0.45%	0.25%	CNc1nc(Nc2ccc(C(=O)N3CCC(N4CCOCC4)CC3)c3c2OCCO3)nc2[nH]cc(C(F)(F)F)c12 [Example 238, (8-((4-(methylamino)-5-(trifluoromethyl)-7H-pyrrolo[2,3-d]pyrimidin-2-yl)amino)-2,3-dihydrobenzo[b][1,4]dioxin-5-yl)(4-morpholinopiperidin-1-yl)methanone]
